Measurements published in patent US20240228459A1 (Boundless Bio, Inc., priority 2022, published 2024).

Tests used:
[1] = molecular target: Wee1 (Homo sapiens, UniProt P30291); experiment: Wee1 pCDK1 activity (known assay); assay type: cell-based
Description: (§1) The Wee1 pCDK1 and PLK1 activities were determined using known assays.

[2] = molecular target: PLK1 (Homo sapiens, UniProt P53350); experiment: PLK1 activity (known assay); assay type: biochemical
Description: as §1

Sequence of Wee1 (P30291 whole entry, species assumed): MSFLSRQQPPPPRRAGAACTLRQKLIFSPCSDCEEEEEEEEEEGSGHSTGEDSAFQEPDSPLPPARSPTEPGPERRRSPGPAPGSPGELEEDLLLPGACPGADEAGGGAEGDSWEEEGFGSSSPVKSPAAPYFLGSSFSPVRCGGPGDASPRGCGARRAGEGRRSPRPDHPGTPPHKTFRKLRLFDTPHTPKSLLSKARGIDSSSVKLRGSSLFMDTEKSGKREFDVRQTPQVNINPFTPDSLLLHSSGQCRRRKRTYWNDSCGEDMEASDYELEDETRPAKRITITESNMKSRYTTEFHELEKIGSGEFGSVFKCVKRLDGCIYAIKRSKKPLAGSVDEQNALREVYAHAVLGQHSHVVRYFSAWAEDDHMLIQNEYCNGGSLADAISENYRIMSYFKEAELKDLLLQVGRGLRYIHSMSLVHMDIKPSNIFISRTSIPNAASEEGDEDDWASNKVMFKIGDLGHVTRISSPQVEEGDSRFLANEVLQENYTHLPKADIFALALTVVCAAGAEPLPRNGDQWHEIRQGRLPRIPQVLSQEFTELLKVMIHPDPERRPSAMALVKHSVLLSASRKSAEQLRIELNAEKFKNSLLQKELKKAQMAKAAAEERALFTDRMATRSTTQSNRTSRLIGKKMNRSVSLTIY
Sequence of PLK1 (P53350 whole entry, species assumed): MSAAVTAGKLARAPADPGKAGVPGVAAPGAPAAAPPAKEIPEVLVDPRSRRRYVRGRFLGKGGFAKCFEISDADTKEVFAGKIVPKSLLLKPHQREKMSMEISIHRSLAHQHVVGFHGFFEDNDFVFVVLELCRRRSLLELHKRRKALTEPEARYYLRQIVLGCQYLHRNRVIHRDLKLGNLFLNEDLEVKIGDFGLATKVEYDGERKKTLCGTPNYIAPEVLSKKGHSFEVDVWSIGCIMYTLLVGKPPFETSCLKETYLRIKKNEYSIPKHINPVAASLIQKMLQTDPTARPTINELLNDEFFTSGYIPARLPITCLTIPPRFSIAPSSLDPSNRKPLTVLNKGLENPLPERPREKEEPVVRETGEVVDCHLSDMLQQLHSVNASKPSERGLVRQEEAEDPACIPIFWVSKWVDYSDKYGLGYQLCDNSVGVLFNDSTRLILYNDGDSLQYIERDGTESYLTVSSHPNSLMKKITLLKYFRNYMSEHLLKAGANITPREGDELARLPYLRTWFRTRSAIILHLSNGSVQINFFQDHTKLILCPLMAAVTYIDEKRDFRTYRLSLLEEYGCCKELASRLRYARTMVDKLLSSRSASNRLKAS

IC50 [1] [nM] | IC50 [2] [nM] | SMILES
≤ 100 | ≤ 100 | CCC1(O)CCc2ccc(Nc3nc(Nc4ccc(N5CC6CCC5CN6C)cc4)ncc3C#N)nc21 (stereo not drawn) [Example 24, 4-[(7-ethyl-7-hydroxy-5,6-dihydrocyclopenta[b]pyridin-2-yl)amino]-2-[4-(5-methyl-2,5-diazabicyclo[2.2.2]octan-2-yl)anilino]pyrimidine-5-carbonitrile]
500 to 1000 | > 1000 | CCC1(O)CCc2ccc(Nc3nc(Nc4ccc5c(c4)CCNC5(C)C)ncc3C#N)nc21 (stereo not drawn) [Example 25, 2-[(1,1-dimethyl-3,4-dihydro-2H-isoquinolin-6-yl)amino]-4-[(7-ethyl-7-hydroxy-5,6-dihydrocyclopenta[b]pyridin-2-yl)amino]pyrimidine-5-carbonitrile]
≤ 100 | > 1000 | CCC1(O)CCc2ccc(Nc3nc(Nc4ccc5c(c4)CCN(C)C5(C)C)ncc3C#N)nc21 (stereo not drawn) [Example 26, 4-[(7-ethyl-7-hydroxy-5,6-dihydrocyclopenta[b]pyridin-2-yl)amino]-2-[(1,1,2-trimethyl-3,4-dihydroisoquinolin-6-yl)amino]pyrimidine-5-carbonitrile]
250 to 500 | 100 to 250 | CCC1(O)CCc2ccc(Nc3nc(Nc4ccc5c(c4)CN(C)CC5)ncc3C#N)nc21 (stereo not drawn) [Example 29]
250 to 500 | > 1000 | CCC1(O)CCc2ccc(Nc3nc(Nc4ccc5c(c4)CNCC5(C)C)ncc3C#N)nc21 (stereo not drawn) [Example 30, 2-[(4,4-dimethyl-2,3-dihydro-1H-isoquinolin-7-yl)amino]-4-[(7-ethyl-7-hydroxy-5,6-dihydrocyclopenta[b]pyridin-2-yl)amino]pyrimidine-5-carbonitrile]
> 1000 | 100 to 250 | CCC1(O)CCc2ccc(Nc3nc(Nc4ccc(N5CCNC6(CC6)C5)cc4)ncc3C#N)nc21 (stereo not drawn) [Example 31, 2-[4-(4,7-diazaspiro[2.5]octan-7-yl)anilino]-4-[(7-ethyl-7-hydroxy-5,6-dihydrocyclopenta[b]pyridin-2-yl)amino]pyrimidine-5-carbonitrile]
> 1000 | ≤ 100 | CCC1(O)CCc2ccc(Nc3nc(Nc4ccc(N5CCN(C)C6(CC6)C5)cc4)ncc3C#N)nc21 (stereo not drawn) [Example 33, 4-[(7-ethyl-7-hydroxy-5,6-dihydrocyclopenta[b]pyridin-2-yl)amino]-2-[4-(4-methyl-4,7-diazaspiro[2.5]octan-7-yl)anilino]pyrimidine-5-carbonitrile]
100 to 250 | ≤ 100 | CCC1(O)CCc2ccc(Nc3nc(Nc4ccc(N5CC6CN(C)CC6C5)cc4)ncc3C#N)nc21 (stereo not drawn) [Example 34, 4-[(7-ethyl-7-hydroxy-5,6-dihydrocyclopenta[b]pyridin-2-yl)amino]-2-[4-(2-methyl-1,3,3a,4,6,6a-hexahydropyrrolo[3,4-c]pyrrol-5-yl)anilino]pyrimidine-5-carbonitrile]
100 to 250 | ≤ 100 | CCC1(O)CCc2ccc(Nc3nc(Nc4ccc(N5CC6CCC(C5)N6C)cc4)ncc3C#N)nc21 (stereo not drawn) [Example 35, 4-[(7-ethyl-7-hydroxy-5,6-dihydrocyclopenta[b]pyridin-2-yl)amino]-2-[4-(8-methyl-3,8-diazabicyclo[3.2.1]octan-3-yl)anilino]pyrimidine-5-carbonitrile]
250 to 500 | > 1000 | CCC1(O)CCc2ccc(Nc3nc(Nc4ccc(N5C6CCC5CN(C)C6)cc4)ncc3C#N)nc21 (stereo not drawn) [Example 36, 4-[(7-ethyl-7-hydroxy-5,6-dihydrocyclopenta[b]pyridin-2-yl)amino]-2-[4-(3-methyl-3,8-diazabicyclo[3.2.1]octan-8-yl)anilino]pyrimidine-5-carbonitrile]
100 to 250 | ≤ 100 | CCC1(O)CCc2ccc(Nc3nc(Nc4ccc(N5CCC6(CCN(C)CC6)CC5)cc4)ncc3C#N)nc21 (stereo not drawn) [Example 39, 4-[(7-ethyl-7-hydroxy-5,6-dihydrocyclopenta[b]pyridin-2-yl)amino]-2-[4-(9-methyl-3,9-diazaspiro[5.5]undecan-3-yl)anilino]pyrimidine-5-carbonitrile]
500 to 1000 | > 1000 | CCC1(O)CCc2ccc(Nc3nc(Nc4cc(F)c(C5CCN(C)CC5)c(F)c4)ncc3C#N)nc21 (stereo not drawn) [Example 40, 2-[3,5-difluoro-4-(1-methyl-4-piperidyl)anilino]-4-[(7-ethyl-7-hydroxy-5,6-dihydrocyclopenta[b]pyridin-2-yl)amino]pyrimidine-5-carbonitrile]
100 to 250 | 250 to 500 | CCC1(O)CCc2ccc(Nc3nc(Nc4cc(C)c(C5CCN(C)CC5)c(F)c4)ncc3C#N)nc21 (stereo not drawn) [Example 41, 4-[(7-ethyl-7-hydroxy-5,6-dihydrocyclopenta[b]pyridin-2-yl)amino]-2-[3-fluoro-5-methyl-4-(1-methyl-4-piperidyl)anilino]pyrimidine-5-carbonitrile]
250 to 500 | 100 to 250 | CCC1(O)CCc2ccc(Nc3nc(Nc4ccc(C5CCN(C)CC5)c(Cl)c4)ncc3C#N)nc21 (stereo not drawn) [Example 42, 2-[3-chloro-4-(1-methyl-4-piperidyl)anilino]-4-[(7-ethyl-7-hydroxy-5,6-dihydrocyclopenta[b]pyridin-2-yl)amino]pyrimidine-5-carbonitrile]
250 to 500 | 250 to 500 | CCC1(O)CCc2ccc(Nc3nc(Nc4ccc(C5CCN(C)CC5)c(F)c4)ncc3C#N)nc21 (stereo not drawn) [Example 43, 4-[(7-ethyl-7-hydroxy-5,6-dihydrocyclopenta[b]pyridin-2-yl)amino]-2-[3-fluoro-4-(1-methyl-4-piperidyl)anilino]pyrimidine-5-carbonitrile]
100 to 250 | 250 to 500 | CCC1(O)CCc2ccc(Nc3nc(Nc4ccc(C5CCN(C)CC5)c(COC)c4)ncc3C#N)nc21 (stereo not drawn) [Example 44, 4-[(7-ethyl-7-hydroxy-5,6-dihydrocyclopenta[b]pyridin-2-yl)amino]-2-[3-(methoxymethyl)-4-(1-methyl-4-piperidyl)anilino]pyrimidine-5-carbonitrile]
≤ 100 | ≤ 100 | CCC1(O)CCc2ccc(Nc3nc(Nc4ccc(C5CCN(C)CC5)c(OC)c4)ncc3C#N)nc21 (stereo not drawn) [Example 45, 4-[(7-ethyl-7-hydroxy-5,6-dihydrocyclopenta[b]pyridin-2-yl)amino]-2-[3-methoxy-4-(1-methyl-4-piperidyl)anilino]pyrimidine-5-carbonitrile]
100 to 250 | 250 to 500 | CCC1(O)CCc2ccc(Nc3nc(Nc4ccc5c(c4)CCN(C)C5)ncc3C#N)nc21 (stereo not drawn) [Example 46, 4-[(7-ethyl-7-hydroxy-5,6-dihydrocyclopenta[b]pyridin-2-yl)amino]-2-[(2-methyl-3,4-dihydro-1H-isoquinolin-6-yl)amino]pyrimidine-5-carbonitrile]
≤ 100 | 250 to 500 | CCC1(O)CCc2ccc(Nc3nc(Nc4cc(C)c5c(c4)CCN(C)C5)ncc3C#N)nc21 (stereo not drawn) [Example 47, 2-[(2,8-dimethyl-3,4-dihydro-1H-isoquinolin-6-yl)amino]-4-[(7-ethyl-7-hydroxy-5,6-dihydrocyclopenta[b]pyridin-2-yl)amino]pyrimidine-5-carbonitrile]
250 to 500 | > 1000 | CCC1(O)CCc2ccc(Nc3nc(Nc4ccc5c(c4)CN(C)CC5(C)C)ncc3C#N)nc21 (stereo not drawn) [Example 48, 4-[(7-ethyl-7-hydroxy-5,6-dihydrocyclopenta[b]pyridin-2-yl)amino]-2-[(2,4,4-trimethyl-1,3-dihydroisoquinolin-7-yl)amino]pyrimidine-5-carbonitrile]
≤ 100 | ≤ 100 | CCC1(O)CCc2ccc(Nc3nc(Nc4cc(C)c5c(c4)CN(C)CC5)ncc3C#N)nc21 (stereo not drawn) [Example 49, 2-[(2,5-dimethyl-3,4-dihydro-1H-isoquinolin-7-yl)amino]-4-[(7-ethyl-7-hydroxy-5,6-dihydrocyclopenta[b]pyridin-2-yl)amino]pyrimidine-5-carbonitrile]
500 to 1000 | 100 to 250 | CCC1(O)CCc2ccc(Nc3nc(Nc4ccc(COC)c(N5CCN(C)CC5)c4)ncc3C#N)nc21 (stereo not drawn) [Example 50, 4-[(7-ethyl-7-hydroxy-5,6-dihydrocyclopenta[b]pyridin-2-yl)amino]-2-[4-(methoxymethyl)-3-(4-methylpiperazin-1-yl)anilino]pyrimidine-5-carbonitrile]
100 to 250 | 250 to 500 | CCC1(O)CCc2ccc(Nc3nc(Nc4ccc(N5CCN(C)CC5C)cc4)ncc3C#N)nc21 (stereo not drawn) [Example 51, 2-[4-(2,4-dimethylpiperazin-1-yl)anilino]-4-[(7-ethyl-7-hydroxy-5,6-dihydrocyclopenta[b]pyridin-2-yl)amino]pyrimidine-5-carbonitrile]
250 to 500 | ≤ 100 | CCC1(O)CCc2ccc(Nc3nc(Nc4ccc(N5CCN(C)C(C)C5)cc4)ncc3C#N)nc21 (stereo not drawn) [Example 52, 2-[4-(3,4-dimethylpiperazin-1-yl)anilino]-4-[(7-ethyl-7-hydroxy-5,6-dihydrocyclopenta[b]pyridin-2-yl)amino]pyrimidine-5-carbonitrile]
250 to 500 | ≤ 100 | CCC1(O)CCc2ccc(Nc3nc(Nc4ccc(N5CCN(C(C)=O)C6(CC6)C5)cc4)ncc3C#N)nc21 (stereo not drawn) [Example 54, 2-[4-(4-acetyl-4,7-diazaspiro[2.5]octan-7-yl)anilino]-4-[(7-ethyl-7-hydroxy-5,6-dihydrocyclopenta[b]pyridin-2-yl)amino]pyrimidine-5-carbonitrile]
> 1000 | ≤ 100 | CCC1(O)CCc2ccc(Nc3nc(Nc4ccc5c(c4)CNCC54CC4)ncc3C#N)nc21 (stereo not drawn) [Example 55, 4-[(7-ethyl-7-hydroxy-5,6-dihydrocyclopenta[b]pyridin-2-yl)amino]-2-(spiro[2,3-dihydro-1H-isoquinoline-4,1′-cyclopropane]-7-ylamino)pyrimidine-5-carbonitrile]
100 to 250 | 100 to 250 | CCC1(O)CCc2ccc(Nc3nc(Nc4ccc5c(c4)CN(C)CC54CC4)ncc3C#N)nc21 (stereo not drawn) [Example 56, 4-[(7-ethyl-7-hydroxy-5,6-dihydrocyclopenta[b]pyridin-2-yl)amino]-2-[(2-methylspiro[1,3-dihydroisoquinoline-4,1′-cyclopropane]-7-yl)amino]pyrimidine-5-carbonitrile]
